Test results from patent publication US10457663B2, “Pyrazol-pyridine derivatives” (Hoffmann-La Roche Inc., priority 2016, dated 2019).

What was measured:
human EAAT3 = target: T1, human EAAT3 (Homo sapiens, UniProt P43005); assay: FLIPR Membrane Potential (FMP) assay; format: cell-based; details: HEK-293 cells stably expressing human EAAT3; L-glutamate as agonist at EC80; antagonist applied 15 min before; Kb by Cheng-Prusoff from IC50
T1 construct: expressed in transfected cells; host or cells: HEK-293
T1 sequence (P43005 1-524): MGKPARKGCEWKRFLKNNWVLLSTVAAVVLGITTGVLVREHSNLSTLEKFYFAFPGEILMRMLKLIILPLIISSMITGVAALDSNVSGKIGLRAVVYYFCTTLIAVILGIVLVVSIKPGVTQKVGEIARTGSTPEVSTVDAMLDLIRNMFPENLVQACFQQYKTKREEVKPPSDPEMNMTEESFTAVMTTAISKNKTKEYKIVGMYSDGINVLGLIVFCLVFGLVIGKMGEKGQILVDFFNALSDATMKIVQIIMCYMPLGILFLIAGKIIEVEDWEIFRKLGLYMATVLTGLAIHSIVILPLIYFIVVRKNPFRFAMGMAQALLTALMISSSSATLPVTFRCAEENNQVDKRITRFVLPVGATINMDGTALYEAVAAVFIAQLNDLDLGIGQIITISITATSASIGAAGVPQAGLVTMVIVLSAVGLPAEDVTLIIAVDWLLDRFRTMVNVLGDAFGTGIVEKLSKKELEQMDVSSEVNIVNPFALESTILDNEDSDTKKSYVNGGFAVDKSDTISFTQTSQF
Method: The FLIPR Membrane Potential (FMP) assay
HEK-293 cells stably expressing human EAAT3 were seeded at 55 000 cells/well in growth medium (DMEM glutamate free (Invitrogen 11960-044), 1% Pen Strep (10 ml/l GIBCO BRL N^o 15140-023), 10% FCS non dialysed heat inactivated, 5 mg/l puromycin) in poly-D-lysine treated 96-well black microtiter plates with clear-bottom. After 24 h, the growth medium was removed and 100 μl/well of Krebs buffer (140 mM NaCl, 4.7 mM KCl, 2.5 mM CaCl2), 1.2 mM MgCl2, 11 mM HEPES, 10 mM D-glucose, pH=7.4) added. The cells were then loaded by adding 100 μl/well FMP assay dye (FLIPR Membrane Potential assay reagent, Molecular Devices). The 96-well plates were then incubated at 37° C. for 1 h. The depolarization of the cells will cause more dye to enter in the cells, where it will bind to intracellular proteins and lipids and cause an increase in the fluorescence signal. Antagonist potency at human EAAT3 was determined by using L-glutamate as agonist at a concentration which gives 80% of the maximum response. The antagonists were applied 15 min before the application of the agonist L-glutamate. The assays were performed at room temperature and measurements done by using a Fluorometric Imaging Plate Reader (FLIPR, Molecular Devices) and filter #2. Responses were measured as peak increase in fluorescence minus basal (i.e. fluorescence without addition of L-glutamate). Kb was determined using the Cheng-Prusoff equation Kb=IC50/[1+(A/EC50)], where IC50 is the concentration of the antagonist producing 50% inhibition, A is the concentration of the agonist against which the IC50 is being determined (at EC80) and EC50 is the concentration of the agonist producing 50% […].

Kb (human EAAT3) [nM] | melting point [°C] | Compound
560 | 186 | CC(C)n1nccc1-c1cc(C(=O)NC(C)(C)C(F)(F)F)cc(-c2ccc(F)cc2)n1 [Example 44, 2-(4-Fluorophenyl)-6-(2-propan-2-yl-pyrazol-3-yl)-N-(1,1,1-trifluoro-2-methyl-propan-2-yl)-pyridine-4-carboxamide]
94 | 209 | CC(C)(C)NC(=O)c1cc(-c2ccccc2)nc(-c2ccnn2C(C)(C)C)c1 [Example 27, N-tert-Butyl-2-(2-tert-butyl-pyrazol-3-yl)-6-phenyl-pyridine-4-carboxamide]
135 | 169 | CC(C)(NC(=O)c1cc(-c2ccc(F)cc2)nc(-c2ccnn2C(C)(C)C)c1)C1CC1 [Example 15, 2-(2-tert-Butyl-pyrazol-3-yl)-N-(2-cyclopropyl-propan-2-yl)-6-(4-fluorophenyl)-pyridine-4-carboxamide]
550 | 173 | CC(C)n1nccc1-c1cc(C(=O)NC(C)(C)C2CC2)cc(-c2ccc(F)cc2)n1 [Example 46, N-(2-Cyclopropyl-propan-2-yl)-2-(4-fluorophenyl)-6-(2-propan-2-yl-pyrazol-3-yl)-pyridine-4-carboxamide]
340 | 165 | CC(C)n1nccc1-c1cc(C(=O)NC(C)(C)CO)cc(-c2ccc(Cl)cc2)n1 [Example 51, 2-(4-Chlorophenyl)-N-(1-hydroxy-2-methylpropan-2-yl)-6-(2-propan-2-yl-pyrazol-3-yl)-pyridine-4-carboxamide]
65 | 226 | CC(C)(C)NC(=O)c1cc(-c2ccc(F)cc2)nc(-c2ccnn2C(C)(C)C)c1 [Example 3, N-tert-Butyl-2-(2-tert-butyl-pyrazol-3-yl)-6-(4-fluorophenyl)-pyridine-4-carboxamide]
290 | 222 | CC(C)(C)NC(=O)c1cc(-c2ccc(C(F)(F)F)cc2)nc(-c2ccnn2C(C)(C)C)c1 [Example 5, N-tert-Butyl-2-(2-tert-butyl-pyrazol-3-yl)-6-[4-(trifluoromethyl)-phenyl]-pyridine-4-carboxamide]
750 | 186 | CCn1nccc1-c1cc(C(=O)NC(C)(C)C)cc(-c2ccc(C(F)(F)F)cc2)n1 [Example 41, N-tert-Butyl-2-(2-ethyl-pyrazol-3-yl)-6-[4-(trifluoromethyl)-phenyl]-pyridine-4-carboxamide]
510 | 179 | CCn1nccc1-c1cc(C(=O)NC(C)(C)C)cc(-c2ccc(Cl)cc2)n1 [Example 39, N-tert-Butyl-2-(4-chlorophenyl)-6-(2-ethyl-pyrazol-3-yl)-pyridine-4-carboxamide]
380 | 203 | CC(C)(C)NC(=O)c1cc(-c2ccc(C(F)(F)F)cc2)nc(-c2ccnn2CC2CC2)c1 [Example 42, N-tert-Butyl-2-[2-(cyclopropylmethyl)-pyrazol-3-yl]-6-[4-(trifluoromethyl)-phenyl]-pyridine-4-carboxamide]
240 | 175 | CC(C)(C)NC(=O)c1cc(-c2ccc(F)cc2)nc(-c2ccnn2C2CC2)c1 [Example 48, N-tert-Butyl-2-(2-cyclopropyl-pyrazol-3-yl)-6-(4-fluorophenyl)-pyridine-4-carboxamide]
88 | 178 | CC(C)(C)n1nccc1-c1cc(C(=O)NC(C)(C)C(F)(F)F)cc(-c2ccc(F)cc2)n1 [Example 13, 2-(2-tert-Butyl-pyrazol-3-yl)-6-(4-fluorophenyl)-N-(1,1,1-trifluoro-2-methyl-propan-2-yl)-pyridine-4-carboxamide]
440 | 206 | CC(C)n1nccc1-c1cc(C(=O)NC(C)(C)C#N)cc(-c2ccc(Cl)cc2)n1 [Example 52, 2-(4-Chlorophenyl)-N-(2-cyanopropan-2-yl)-6-(2-propan-2-yl-pyrazol-3-yl)-pyridine-4-carboxamide]
89 | 207 | Cc1ccc(-c2cc(C(=O)NC(C)(C)C)cc(-c3ccnn3C(C)(C)C)n2)cc1F [Example 26, N-tert-Butyl-2-(2-tert-butyl-pyrazol-3-yl)-6-(3-fluoro-4-methyl-phenyl)-pyridine-4-carboxamide]
310 | 197 | CC(C)n1nccc1-c1cc(C(=O)NC(C)(C)C)cc(-c2ccccc2)n1 [Example 28, N-tert-Butyl-2-phenyl-6-(2-propan-2-yl-pyrazol-3-yl)-pyridine-4-carboxamide]
